Where two headings read alike, the source gives them in different places.
Tests used:
Type in all cases: physicochemical
[1] = Amyloid-forming properties of the peptide screen (overall call from Th-T, pFTAA, TEM)
From the text: In the interest of improving the current description of the familiar amyloidogenic protein dataset, we selected and synthesised a subset of 96 peptides corresponding to strong aggregation prone regions identified in these proteins by Cordax. Apart of prediction strength, the peptide screen was also selectively constructed to ensure broad sequence variability and a wide distribution on the proteins of the dataset, with a preference for longer entries defined by inadequate previous characterisation. Peptide sequences were cross-checked and filtered to exclude overlapping sequences with previously identified amyloid regions and WALTZ-DB (see Table 2). The remaining selection of 96 peptides were synthesized using standard solid phase synthesis and their amyloid-forming properties were initially examined using Thioflavin-T (Th-T) or pFTAA binding, following rotating incubation for 5 days at room temperature. The binding assays are complementary, as Th-T and pFTAA are opposingly charged molecules, which increases the amyloid identification rate by overcoming cases of dye-specific failure to bind to amyloid surfaces based on charge repulsion. Under these conditions, 66 peptides successfully bind the specific dyes (FIGS. 3a & 3b) by forming fibrils with typical amyloid morphologies and properties that were verified using transmission electron microscopy (FIG. 3c) and Congo red staining for selected cases (FIG. 3d). As these dyes are known to yield false negatives, in particular for short peptides, all dye-negative peptides were further investigated using electron microscopy. During this scan, we recovered 19 additional sequences that were capable of forming sparse amyloid-like fibrils with shorter lengths (see FIG. 8). […]
(§1) Peptides derived from the Cordax validation set were synthesized using an Intavis Multipep RSi solid phase peptide synthesis robot. Peptide purity (>90%) was evaluated using RP-HPLC purification protocols and peptides were stored as ether precipitates (−20° C.). Peptide stocks were initially treated with 1,1,1,3,3,3-hexafluoro-isopropanol (HFIP) (Merck), then dissolved in traces of dimethyl sulfoxide (DMSO) (Merck) (<5%), filtered through 0.2 μm filters and finally in milli-Q water to reach a final concentration of 200 μM or up to 1 mM for dye-negative peptides. Dithiothreitol (DTT) (1 mM) was included in solutions of peptides spanning cysteine or methionine residues. All peptides were incubated at room temperature for a period of 5 days on a rotating wheel.
(§2) Amyloid aggregation was monitored using fluorescent spectroscopy binding assays. Th-T (Sigma) or pFTAA (Ebba Biotech AB) was added in half-area black 96-well microplates (Corning, USA) at a final concentration of 25 μM and 0.5 μM, respectively. Fluorescence intensity was measured in replicates (n=6) using a PolarStar Optima and a FluoStar Omega plate reader (BMG Labtech, Germany), equipped with an excitation filter at 440 nm and emission filters at 480 nm and 510 nm, respectively.
(§3) Peptide solutions were incubated for 5 days at room temperature in order to form mature amyloid-like fibrils. Suspensions (5 μL) of each peptide solution were added on 400-mesh carbon-coated copper grids (Agar Scientific Ltd., England), following a glow-discharging step of 30 s to improve sample adsorption. Grids were washed with milli-Q water and negatively stained using uranyl acetate (2% w/v in milli-Q water). Grids were examined with a JEM-1400 120 kV transmission electron microscope (JEOL, Japan), operated at […].

[2] = Thioflavin-T binding assay of synthetic peptides; details: 200 μM peptide, rotation 5 days, room temperature; Th-T 25 μM
From the text: (§4) In the interest of improving the current description of the familiar amyloidogenic protein dataset, we selected and synthesised a subset of 96 peptides corresponding to strong aggregation prone regions identified in these proteins by Cordax. Apart of prediction strength, the peptide screen was also selectively constructed to ensure broad sequence variability and a wide distribution on the proteins of the dataset, with a preference for longer entries defined by inadequate previous characterisation. Peptide sequences were cross-checked and filtered to exclude overlapping sequences with previously identified amyloid regions and WALTZ-DB (see Table 2). The remaining selection of 96 peptides were synthesized using standard solid phase synthesis and their amyloid-forming properties were initially examined using Thioflavin-T (Th-T) or pFTAA binding, following rotating incubation for 5 days at room temperature. The binding assays are complementary, as Th-T and pFTAA are opposingly charged molecules, which increases the amyloid identification rate by overcoming cases of dye-specific failure to bind to amyloid surfaces based on charge repulsion. Under these conditions, 66 peptides successfully bind the specific dyes (FIGS. 3a & 3b) by forming fibrils with typical amyloid morphologies and properties that were verified using transmission electron microscopy (FIG. 3c) and Congo red staining for selected cases (FIG. 3d). As these dyes are known to yield false negatives, in particular for short peptides, all dye-negative peptides were further investigated using electron microscopy. During this scan, we recovered 19 additional sequences that were capable of forming sparse amyloid-like fibrils with shorter lengths (see FIG. 8).
as §1, §2

[3] = pFTAA binding assay of synthetic peptides; details: 200 μM peptide, rotation 5 days, room temperature; pFTAA 0.5 μM
From the text: as §4, §1, §2

[4] = Transmission electron microscopy of peptide fibrils
From the text: as §4, §3

[5] = amyloid-like fibrils after 5 days at room temperature

| Substance | Amyloid ([1]; overall amyloid-forming call) | Th-T Binding [2] | pFTAA Binding [3] | TEM [4, 5] | TEM [4] | Amyloid [1] |
| --- | --- | --- | --- | --- | --- | --- |
| YFTAIQ | ● | ● | ● |  |  |  |
| LYHLVT | ● |  |  | ● |  |  |
| FEYVQL | ● | ● | ● |  |  |  |
| LYHGQT | ● |  |  | ● |  |  |
| GYLTIR | ● |  |  | ● |  |  |
| GYTLFS | ● |  |  | ● |  |  |
| FYAVRL | ● |  |  | ● |  |  |
| GWFLGW | ● | ● |  |  |  |  |
| MDVFMK | ● | ● | ● |  |  |  |
| DLVVFE | ● | ● | ● |  |  |  |
| QIIEIE | ● | ● | ● |  |  |  |
| INFEFS | ● | ● | ● |  |  |  |
| GDVAFI | ● | ● | ● |  |  |  |
| LHCLRR | ● |  | ● |  |  |  |
| IQIHHY | ● |  |  | ● |  |  |
| YVAGIT | ● | ● | ● |  |  |  |
| MDKVER | ● |  |  | ● |  |  |
| IGYNIK | ● |  |  | ● |  |  |
| YFHARG | ● |  |  | ● |  |  |
| LNLKLL | ● |  | ● |  |  |  |
| LNSVFK | ● |  |  | ● |  |  |
| HYYAVA | ● |  | ● |  |  |  |

| Substance | Amyloid ([1]; overall amyloid-forming call) | Th-T Binding [2] | pFTAA Binding [3] | TEM [4, 5] | TEM [4] | Amyloid [1] |
| --- | --- | --- | --- | --- | --- | --- |
| SEFSKK | ● |  | ● |  |  |  |
| LLVYNK | ● |  |  | ● |  |  |
| LIVSIL | ● | ● | ● |  |  |  |
| AYVILK | ● |  | ● |  |  |  |
| VVVNKM | ● |  | ● |  |  |  |
| INAWLF | ● | ● | ● |  |  |  |
| FSFTIA | ● | ● | ● |  |  |  |
| LIFMGH | ● | ● | ● |  |  |  |
| LVMELD | ● | ● | ● |  |  |  |
| EDCFIL | ● | ● | ● |  |  |  |
| GVIHYI | ● |  |  | ● |  |  |
| LCSTFC | ● | ● | ● |  |  |  |
| MIIYKG | ● |  | ● |  |  |  |
| CEFLRK | ● |  | ● |  |  |  |
| MVVEHP | ● |  | ● |  |  |  |
| GWNIPM | ● |  | ● |  |  |  |
| TLFTMD | ● |  |  | ● |  |  |
| LQVDLG | ● | ● | ● |  |  |  |
| SYVLQT | ● | ● | ● |  |  |  |
| DCFEYV | ● | ● | ● |  |  |  |
| TKVIPY | ● |  | ● |  |  |  |
| MFSEFD | ● | ● | ● |  |  |  |

| Substance | Amyloid ([1]; overall amyloid-forming call) | Th-T Binding [2] | pFTAA Binding [3] | TEM [4, 5] | TEM [4] | Amyloid [1] |
| --- | --- | --- | --- | --- | --- | --- |
| TDVVFM | ● | ● | ● |  |  |  |
| IGINIK | ● |  |  | ● |  |  |
| FLGYFK | ● |  |  | ● |  |  |
| QVYYRP |  |  |  |  | ● | ● |
| LSIWES | ● | ● | ● |  |  |  |
| MYVSEM | ● | ● | ● |  |  |  |
| EVYKWT | ● |  | ● |  |  |  |
| IGVVGW | ● | ● | ● |  |  |  |
| VNIELL | ● | ● | ● |  |  |  |
| FKVAIV | ● |  | ● |  |  |  |
| LLDNWD | ● |  | ● |  |  |  |
| VDMAMC | ● | ● | ● |  |  |  |
| MSVSLV | ● | ● | ● |  |  |  |
| SVDYEV | ● |  | ● |  |  |  |
| NLYEKT | ● |  | ● |  |  |  |
| VYTVFA | ● | ● | ● |  |  |  |
| TIFLDF | ● |  | ● |  |  |  |
| MELIVS | ● | ● | ● |  |  |  |
| MLHKEF | ● | ● |  |  |  |  |
| AFFLFC | ● | ● | ● |  |  |  |
